Test results published in patent US8012944B2, “Method for treating cancer using IAP antisense oligomer and chemotherapeutic agent” (Pharmascience Inc., priority 2003, dated 2011).
Oligonucleotides are written 5' to 3', each unit as a sugar letter and its base; * is a phosphorothioate linkage, no mark a phosphodiester; rarer units and linkages stand in square brackets, end groups in braces. Plain capitals give the bases only. d = 2'-deoxy (DNA); m = 2'-O-methyl

Tests used:
Type in all cases: cell-based, human
HIAP1 mRNA = HIAP1 mRNA in SF295 cells, basal conditions (TaqMan); design: decrease of HIAP1 mRNA compared to mock or scrambled survivin control: concentration or dose not given beside the values; conditions: for HIAP1 mRNA levels (in words): SF295 cells (FIG. 21)
Method: (§1) RNA was extracted from cells lysed in RLT buffer (QIAGEN, Valencia, Calif.), and purified using QIAGEN RNeasy columns/kits. Real-time quantitative PCR was performed on a Perkin-Elmer ABI 7700 Prism PCR machine. RNA was reverse transcribed and amplified according to the TaqMan Universal PCR Master Mix protocol of PE Biosystems, using primers and probes designed to specifically recognize XIAP, HIAP1, survivin, or GAPDH. For human survivin, the forward primer was 5′-[…]-3′ (SEQ ID NO: 263), the reverse primer was 5′-GAAAGGAAAGCGCAACCG-3′ (SEQ ID NO: 264), and the probe was 5′-(FAM)[…](TAMRA)-3′ (SEQ ID NO: 265). For human HIAP1, the forward primer was 5′-[…]-3′ (SEQ ID NO: 266), the reverse primer was 5′-[…]-3′ (SEQ ID NO: 267), and the probe was 5′-(FAM)[…](TAMRA)-3′ (SEQ ID NO: 268). For human XIAP, the forward primer was 5′-[…]-3′ (SEQ ID NO: 269), the reverse primer was 5′-[…]-3′ (SEQ ID NO: 270), and the probe was 5′-(FAM)[…](TAMRA)-3′ (SEQ ID NO: 271). For human GAPDH, the forward primer was 5′-GAAGGTGAAGGTCGGAGTC-3′ (SEQ ID NO: 272), the reverse primer was 5′-GAAGATGGTGATGGGATTC-3′ (SEQ ID NO: 273), and the probe was 5′-(JOE)[…](TAMRA)-3′ (SEQ ID NO: 274). FAM is 6-carboxyfluoroscein, JOE is 6-carboxy-4,5-dichloro-2,7-dimethoxyfluoroscein, and TAMRA is 6-carboxy-N,N,N′,N′-tetramethylrhodamine. FAM and JOE are 5′ reporter dyes, while TAMRA is a 3′ quencher dye.
(§2) Relative quantification of gene expression was performed as described in the PE Biosystems manual using GAPDH as an internal standard. The comparative Ct (cycle threshold) method was used for relative quantitation of IAP mRNA levels compared to GAPDH mRNA levels. Briefly, real-time fluorescence measurements were taken at each PCR cycle and the threshold cycle (Ct) value for each sample was calculated by determining the point at which fluorescence exceeded a threshold limit of 30 times the baseline standard deviation. The average baseline value and the baseline SD are calculated starting from the third cycle baseline value and stopping at the baseline value three cycles before the signal starts to exponentially rise. The PCR primers and/or probes for the specific IAPs were designed to span at least one exon-intron boundary separated by 1 kb or more of genomic DNA, to reduce the possibility of amplifying and detecting genomic DNA contamination. The specificity of the signal, and possible contamination from DNA, were verified by treating some RNA samples with either DNase or RNase, prior to performing the reverse transcription and PCR reaction steps.
A library of 15 HIAP1 antisense nucleobase oligomers as oligonucleotides was screened for protein knock-down by western blot analysis and for RNA knock-down by TaqMan, using the primers and probes described in Example 3, above, under two different conditions. HIAP1 RNA levels may be detected using standard Northern blot analyses or RT-PCR techniques. The antisense oligonucleotides were administered to cells under basal conditions or under cycloheximide-induction conditions (24 hour treatment with sub-toxic doses). Cycloheximide (CHX) can lead to a 10- to 200-fold induction of HIAP1 mRNA depending on the cell line treated. […] This effect of CHX is via two distinct mechanisms of action. First, CHX activates NFkB, a known transcriptional inducer of HIAP1, by blocking the de novo synthesis of a labile protein, IkB, which is an inhibitor of NFkB. This effect is mimicked by puromycin, another protein synthesis inhibitor, and by TNF-alpha, which induces a signaling cascade leading to the phosphorylation, ubiquination, and degradation of IkB.
SF295 glioblastoma cells were transfected with lipofectin and oligonucleotide (scrambled survivin, no oligonucleotide, antisense APO 1 to APO 15) or left untreated. […]

XIAP RNA = XIAP RNA knock-down in T24 cells (TaqMan quantitative PCR)
Description: (§3) We used TaqMan quantitative PCR (described below) to assay for changes in mRNA levels after oligonucleotide treatment. We employed ELISA for determining XIAP protein levels and western blotting for determining HIAP1 protein levels. Transfection conditions were optimized with Lipofectamine plus or Lipofectamine 2000 (Life Technologies, Canada) on T24 bladder carcinoma cells or H460 non-small cell lung carcinoma cells, or lipofectin on SF-295 glioblastoma cells, using a fluorescein-tagged sense oligonucleotide (5′-mGmAGAAGATGACTGGTAAmCmA-3′; SEQ ID NO: 261) from XIAP spanning the start codon as a control. The results were visualized and gauged by epi-fluorescence microscopy. In the case of T24 cells, transfections were further optimized based on the ability of a published oligonucleotide to downregulate survivin expression (Li et al., Nat. Cell Biol. 1:461-466, 1999) (5′-U/TGTGCTATTCTGTGAAU/TU/T-3′ SEQ ID NO: 262). We optimized the transfection conditions based on the TaqMan results of survivin RNA knock-down detected with PCR primers and fluorescent probe, described in detail below. […] We then applied these conditions to screen for XIAP protein knock-down using the oligo library against T24 cells.
as §1, §2
The XIAP synthetic library of 96 antisense oligonucleotides was first screened for decreases in XIAP protein levels. […]

XIAP protein = XIAP protein knock-down in T24 cells (XIAP ELISA, relative to total protein); conditions: for XIAP protein levels relative to total protein, compared to mock transfection (in words): first screen of the library
Description: as §3
A standard colorimetric XIAP ELISA assay was performed using an affinity-purified rabbit polyclonal antibody to XIAP as a capture antibody, and was detected with a XIAP monoclonal antibody (MBL, Japan) and a biotinylated anti-mouse Ig antibody and horseradish peroxidase-conjugated streptavidin and TMB substrate. Alternatively, a polyclonal XIAP or HIAP1 antibody may be used to measure XIAP or HIAP1 protein levels, respectively.
The XIAP synthetic library of 96 antisense oligonucleotides was first screened for decreases in XIAP protein levels. Specifically, T24 cells (1.5×10^4 cells/well) were seeded in wells of a 96-well plate on day 1, and were cultured in antibiotic-free McCoy's medium for 24 hours. On day 2, the cells were transfected with XIAP antisense oligonucleotides as described above (oligonucleotides are labeled according to their plated position, i.e., A1 to H12, and include two repeats, A13 and B13 that contain lyophilized DNA pellets that stuck to the sealing membrane). Briefly, the nucleobase oligomers were diluted in 10 μl/well of serum-free, antibiotic-free McCoy's medium and then PLUS reagent was added. Lipofectamine was diluted in 10 μl/well of serum-free, antibiotic-free McCoy's medium, and both mixes were incubated for 15 minutes at room temperature. The mixes were then combined and incubated for 15 minutes at room temperature.
In the meantime, the complete medium was removed from the cells and 50 μl/well of serum-free, antibiotic-free medium was added to the cells. The transfection mixes were added to the well, and the cells were incubated for three hours. Then 30 μl/well of serum-free, antibiotic-free medium and 100 μl/well of antibiotic-free complete medium, containing 20% fetal bovine serum were added to each well.
At day 3, XIAP RNA levels were measured using quantitative real-time PCR techniques, as described above. At day 4, XIAP protein levels were measured by ELISA (FIGS. 1A, 1C, 1E, 1G, 1I, and 1K), and total cellular protein was measured biochemically (FIGS. 1B, 1D, 1F, 1H, 1J, and 1L; used to normalize the XIAP protein levels). The results were compared to a mock transfection sample (treated with the transfection agent but no oligonucleotide DNA was added, and then processed as for the other samples). Time course experiments determined that the optimal time for protein knock-down to be around 12 to 24 hours. […]

XIAP mRNA [1] = test: XIAP mRNA knock-down in H460 cells (real-time RT-PCR / TaqMan)
Method: as §1, §2
A portion of the 96 nucleobase oligomers depicted in Table 2 were rescreened for their ability to knock-down XIAP mRNA in NCI-H460 cells at […] post-transfection.
One day prior to transfection, H460 cells were plated in 6- or 96-well tissue culture plates. Phosphorothioate antisense oligonucleotides were delivered into cells with Lipofectamine 2000 (Life Technologies) in the form of liposome-oligonucleotide complexes. Following a 4.5 or 6 h transfection, the transfection medium was replaced with RPMI medium containing 10% FBS, and the cells incubated for another 24 or 48 h.
Total RNA from H460 cells treated with liposome-oligonucleotide complexes for 6 hours was immediately isolated using RNeasy mini spin columns and DNase treatment (QIAGEN, Valencia, Calif.). Specific XIAP mRNA was measured using a real-time quantitative RT-PCR method. […]

XIAP mRNA [2] = test: as above; conditions: 2 × 2 MBO; NCI-H460 cells, 9 hours post-transfection; relative level (mock control 1.01)

## CCTGTCCTTTAATTCTTAT (chemistry not given here) [APO 13]
HIAP1 mRNA
  HIAP1 mRNA levels (in words): stress-induced increase in HIAP1 mRNA

## ACCATTCTGGATACCAGAA (mA*mCdCdAdTdTdCdTdGdGdAdTdAdCdCdAdGmA*mA) [Code C5]
XIAP RNA
  XIAP down-regulation T24 RNA: 71%
XIAP protein
  XIAP down-regulation T24 protein: 54%
  XIAP protein levels relative to total protein, compared to mock transfection (in words): some decrease

## GTGTAGTAGAGTCCAGCAC (antisense; sugars from the 5' end m2 d15 m2, backbone, methylation of C and T or U not given here; further chemistry not fully specified) [Code F6]
XIAP RNA
  XIAP down-regulation T24 RNA: 34%
XIAP protein
  XIAP down-regulation T24 protein: 39%
  XIAP protein levels relative to total protein, compared to mock transfection (in words): some decrease

## AGTTTTCAACTTTGTACTG (antisense; sugars from the 5' end m2 d15 m2, backbone and T or U not given here; further chemistry not fully specified) [Code D5]
XIAP RNA
  XIAP down-regulation T24 RNA: 39%
XIAP protein
  XIAP down-regulation T24 protein: 33%
  XIAP protein levels relative to total protein, compared to mock transfection (in words): some decrease

## GCATTTTCGTTATTCATTG (chemistry not given here) [APO 11]
HIAP1 mRNA
  HIAP1 mRNA levels (in words): stress-induced increase in HIAP1 mRNA

## CTACAGCTGCATGACAACT (antisense; sugars from the 5' end m2 d15 m2, backbone and T or U not given here; further chemistry not fully specified) [Code F4]
XIAP RNA
  XIAP down-regulation T24 RNA: 33%
XIAP protein
  XIAP down-regulation T24 protein: 43%
  XIAP protein levels relative to total protein, compared to mock transfection (in words): some decrease

## GGCTGCAATATTTCCTTTT (chemistry not given here) [APO 14]
HIAP1 mRNA
  HIAP1 mRNA levels (in words): stress-induced increase in HIAP1 mRNA

## CAGGGTTCCTCGGGTATAT (antisense; sugars from the 5' end m2 d15 m2, backbone and T or U not given here; further chemistry not fully specified) [Code B6]
XIAP RNA
  XIAP down-regulation T24 RNA: 51%
XIAP protein
  XIAP down-regulation T24 protein: 47%
  XIAP protein levels relative to total protein, compared to mock transfection (in words): some decrease

## TTCAACATGGAGATTCTAA (chemistry not given here) [APO 9]
HIAP1 mRNA; SF295 cells, six hours after transfection
  decrease of HIAP1 mRNA compared to mock or scrambled survivin control: ~50%

## ACACGACCGCTAAGAAACA (antisense ACACGACCGCNAAGAAACA; sugars from the 5' end m2 d15 m2, linkages s1 o16 s1 (s phosphorothioate, o phosphodiester), the base at N not given here) [Code H2]
XIAP mRNA [1]
  XIAP down-regulation H460 RNA: 46%
XIAP mRNA [2]
  XIAP RNA: 0.56

## TTCAGTTTTCCACCACAAC (antisense; sugars from the 5' end m2 d15 m2, backbone, methylation of C and T or U not given here; further chemistry not fully specified) [Code H6]
XIAP mRNA [1]
  XIAP down-regulation H460 RNA: 68%
XIAP mRNA [2]
  XIAP RNA: 0.31

## ACCCTGGATACCATTTAGC (antisense; chemistry not fully specified) [Code F8]
XIAP protein
  XIAP protein levels relative to total protein, compared to mock transfection (in words): some decrease
XIAP mRNA [1]
  XIAP down-regulation H460 RNA: 47%
XIAP mRNA [2]
  XIAP RNA: 0.62

## TTACCACATCATTCAAGTC (antisense; sugars from the 5' end m2 d15 m2, backbone and T or U not given here; further chemistry not fully specified) [Code F2]
XIAP mRNA [1]
  XIAP down-regulation H460 RNA: 34%
XIAP mRNA [2]
  XIAP RNA: 0.64

## ACCCATGCACAAAACTACC (chemistry not given here) [APO 4]
HIAP1 mRNA
  HIAP1 mRNA levels (in words): stress-induced increase in HIAP1 mRNA

## TGAGAGCCCTTTTTTTGTT (antisense; sugars from the 5' end m2 d15 m2, backbone and T or U not given here; further chemistry not fully specified) [Code D1]
XIAP mRNA [1]
  XIAP down-regulation H460 RNA: 75%
XIAP mRNA [2]
  XIAP RNA: 0.25
